Test results reported in PubChem BioAssay (NCI).
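Assay format: 96-well plates, 48-hour exposure. At the GI50, growth is halved. At the TGI there is no net growth.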

Experiments:
Test in all cases: growth of human tumour cells (NCI), 48 h
EKVX NSCLC = system: EKVX NSCLC
HCT-116 colon = system: HCT-116 colon
HOP-62 NSCLC = system: HOP-62 NSCLC
MOLT-4 leukemia = system: MOLT-4 leukemia
NCI-H226 lung = system: NCI-H226 lung
OVCAR-4 ovarian = system: OVCAR-4 ovarian
OVCAR-5 ovarian = system: OVCAR-5 ovarian
SF-539 CNS = system: SF-539 CNS
SK-OV-3 ovarian = system: SK-OV-3 ovarian
SNB-75 CNS = system: SNB-75 CNS

| SMILES | GI50 (EKVX NSCLC) | TGI (EKVX NSCLC) | GI50 (HCT-116 colon) | TGI (HCT-116 colon) | GI50 (HOP-62 NSCLC) | TGI (HOP-62 NSCLC) | GI50 (MOLT-4 leukemia) | TGI (MOLT-4 leukemia) | GI50 (NCI-H226 lung) | TGI (NCI-H226 lung) | GI50 (OVCAR-4 ovarian) | TGI (OVCAR-4 ovarian) | GI50 (OVCAR-5 ovarian) | TGI (OVCAR-5 ovarian) | GI50 (SF-539 CNS) | TGI (SF-539 CNS) | GI50 (SK-OV-3 ovarian) | TGI (SK-OV-3 ovarian) | GI50 (SNB-75 CNS) | TGI (SNB-75 CNS) |
| --- | --- | --- | --- | --- | --- | --- | --- | --- | --- | --- | --- | --- | --- | --- | --- | --- | --- | --- | --- | --- |
| COc1cc2c(cc1OCCCCCOc1ccc(-c3nc4ccccc4s3)cc1)N=C[C@@H]1CCCN1C2=O | 5.66 µM | > 21.2 µM | 1.23 µM | 12.4 µM | 1.62 µM | 7.59 µM | 3.5 µM | 20 µM | 3.02 µM | 10.4 µM | 3.02 µM | > 76.5 µM | 2.74 µM | 19.2 µM | 1.58 µM | 6.09 µM | 8.97 µM | > 25.6 µM | 6.57 µM | 59.8 µM |
| N#Cc1nc2cc(Cl)c(Cl)cc2nc1-c1ccc(Cl)cc1 | > 100 µM | > 100 µM | 15.8 µM | 29.9 µM | 21 µM | 41.6 µM | 26.9 µM | > 60.4 µM | 21.7 µM | > 61.6 µM | > 100 µM | > 100 µM | > 100 µM | > 100 µM | 46.2 µM | > 100 µM | > 48.3 µM | > 80.5 µM | 19.9 µM | 40.2 µM |
| O=C(c1ccccc1)c1nc2ccc(Cl)cc2cc1C(Br)Br |  | 1.69 µM |  | 0.34 µM |  | 1.94 µM |  | 11.8 µM |  | 3.26 µM |  | 1.41 µM |  | 2 µM |  | 0.537 µM |  | 2.73 µM |  | 1.41 µM |
| COc1cc(OC)c(OC)cc1/C=C/c1ccccn1 |  | > 10 µM |  | > 10 µM |  | > 10 µM |  | > 10 µM |  | > 10 µM |  | > 10 µM |  | > 10 µM |  | > 10 µM |  | > 10 µM |  | > 10 µM |
| COc1cccc2c1C(=O)c1c(O)c3c(c(O)c1C2=O)C[C@@](O)(/C(C)=N/NC(=O)c1cccc([N+](=O)[O-])c1)C[C@@H]3OC1CC(N)C(O)C(C)O1 (stereo not given in full) | 0.495 µM | 4.66 µM | 0.131 µM | 5.25 µM | 0.283 µM | 4.41 µM | 0.0524 µM | 4.9 µM | 0.16 µM | 0.714 µM | 0.65 µM | 11.3 µM | 0.919 µM | 13.5 µM | 0.21 µM | 1.22 µM | 0.374 µM | 7.56 µM | 0.22 µM | 1.5 µM |
| N#CSc1c[nH]c2ccc(/C=C/C(=O)/C=C(O)/C=C/c3ccc4[nH]cc(SC#N)c4c3)cc12 | 1.97 µM | 10.7 µM | 0.296 µM | 1.19 µM | 3.82 µM | 19.8 µM | 1.61 µM | 5.44 µM | 1.95 µM | 5.86 µM | 1.42 µM | 18.6 µM | 3.6 µM | 14.8 µM | 2.87 µM | 10.6 µM | 20.3 µM | 80.2 µM | 3.1 µM | 21.4 µM |
| CCOc1ccc2c(c1)[n+]([O-])c(C(N)=O)c(N)[n+]2[O-] |  | > 100 µM |  | > 100 µM |  | > 100 µM |  | > 100 µM |  | > 100 µM |  | > 100 µM |  | > 100 µM |  | > 100 µM |  | > 100 µM |  | > 100 µM |
| O=C1CN=C(c2ccccc2)c2ccncc2N1 |  | > 100 µM |  | > 100 µM |  | > 100 µM |  | > 100 µM |  | > 100 µM |  | > 100 µM |  | > 100 µM |  | > 100 µM |  | > 100 µM |  | > 100 µM |
| CCN(Cc1ccccc1)c1ccc(/C=C2\COc3ccccc3C2=O)cc1 | 538 µM | > 1000 µM | 270 µM | > 1000 µM | > 1000 µM | > 1000 µM | 105 µM | > 1000 µM | > 1000 µM | > 1000 µM | 761 µM | > 1000 µM | > 1000 µM | > 1000 µM | > 1000 µM | > 1000 µM | > 1000 µM | > 1000 µM | > 1000 µM | > 1000 µM |
| CN1CCN(c2cc(F)c(NC3=C(Cl)C(=O)c4ncccc4C3=O)c(F)c2)CC1 | 1.7 µM | 3.19 µM | 0.646 µM | 2.26 µM | 2.06 µM | 5.18 µM | 2.4 µM | 8.83 µM | 15.7 µM | 39.5 µM | 1.35 µM | 2.65 µM | 1.82 µM | 3.6 µM | 1.52 µM | 2.91 µM | 14.7 µM | 28.2 µM | 1.37 µM | 5.61 µM |
| C/C(=C1\C(=O)Nc2ccccc21)c1cccc(/C(C)=C2/C(=O)Nc3ccccc32)n1 | 0.692 µM | 5.4 µM | 9.93 µM | > 100 µM | 15.5 µM | 74.1 µM | 6.95 µM | > 100 µM | 4.53 µM | 24.5 µM | 43 µM | > 100 µM | 48.4 µM | > 100 µM | 2.49 µM | 7.99 µM | 26.2 µM | > 100 µM | 40.2 µM | > 100 µM |
| Cc1cc(NC(=O)NCCCOc2ccc(N3C(N)=NC(N)=NC3(C)C)cc2Cl)ccc1S(=O)(=O)F | 1.32 µM | > 100 µM | 0.37 µM | > 100 µM | 2.24 µM | 19.6 µM | 1.14 µM | > 96.1 µM | 12.6 µM | > 100 µM | 2.34 µM | > 100 µM | 0.883 µM | > 100 µM | 2.85 µM | 31.7 µM | 9.72 µM | > 82.3 µM | 1.2 µM | 24.4 µM |
| Oc1ccc(CCNc2nc3ccccc3c3[nH]c4ccccc4c23)cc1O | 8.99 µM | 37.4 µM | 1.4 µM | 2.7 µM | 3.78 µM | 13.5 µM | 2.16 µM | 5.38 µM | 11 µM | 24.3 µM | 4.8 µM | 16.9 µM | 14 µM | 26.9 µM | 2.02 µM | 3.6 µM | 10.7 µM | 22.6 µM | 15.9 µM | 33.2 µM |
| COc1ccc(CC(C)NCC(O)c2ccc(O)c(NC=O)c2)cc1 (stereo not given) |  | > 100 µM |  | > 100 µM |  | > 100 µM |  | > 100 µM |  | > 100 µM |  | > 100 µM |  | > 100 µM |  | > 100 µM |  | > 100 µM |  | > 100 µM |
